Key:
[1] = molecular target: Tubulin alpha chain (Sus scrofa) (UniProt P02550); assay: Tested for the reduction of the supernatant protein concentration by tubulin assembly assay; assay type: functional
[2] = Ratio between ED50 of compound and ED50 of taxol; assay type: functional

Sequence of Tubulin alpha chain (Sus scrofa) (P02550 whole entry, looked up): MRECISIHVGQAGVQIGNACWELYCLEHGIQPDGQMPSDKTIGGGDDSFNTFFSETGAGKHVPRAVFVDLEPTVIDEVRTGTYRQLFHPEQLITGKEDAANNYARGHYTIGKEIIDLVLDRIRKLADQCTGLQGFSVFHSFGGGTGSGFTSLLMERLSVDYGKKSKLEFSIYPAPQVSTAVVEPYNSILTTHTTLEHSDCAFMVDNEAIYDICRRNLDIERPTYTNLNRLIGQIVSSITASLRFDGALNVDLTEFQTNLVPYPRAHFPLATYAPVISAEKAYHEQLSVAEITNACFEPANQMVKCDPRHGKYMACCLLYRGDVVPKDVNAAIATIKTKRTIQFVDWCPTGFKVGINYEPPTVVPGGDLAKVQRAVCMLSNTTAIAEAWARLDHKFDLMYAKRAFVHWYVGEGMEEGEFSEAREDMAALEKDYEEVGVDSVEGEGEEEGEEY

ED50 [1] | Compound | Ratio [2]
0.93 µM | CC(=O)O[C@H]1C(=O)[C@@]2(C)[C@H]([C@H](OC(=O)c3ccccc3)[C@]3(O)C[C@H](OC(=O)[C@H](O)[C@@H](NC(=O)c4ccccc4)c4ccccc4)C(C)=C1C3(C)C)[C@]1(OC(C)=O)CO[C@@H]1C[C@@H]2O | 1
> 25 µM | CC(=O)O[C@@]12CO[C@@H]1C[C@H](O)[C@@]1(C)C(=O)[C@H](O)C3=C(C)[C@@H](OC(=O)[C@H](O)[C@@H](NC(=O)OC(C)(C)C)c4ccccc4)C[C@@](O)([C@@H](OC(=O)c4ccccc4)[C@H]21)C3(C)C | > 27

Compound | ED50 [1] | Ratio [2]
CC(=O)O[C@@]12CO[C@@H]1C[C@H](O)[C@@]1(C)C(=O)[C@H](O)C3=C(C)[C@@H](OC(=O)[C@H](O)C(NC(=O)c4ccccc4)c4ccccc4)C[C@@](O)([C@@H](OC(=O)c4ccccc4)C12)C3(C)C (stereo partly specified) | > 25 µM | > 27

Reference: ChEMBL document CHEMBL1127456, “Structure-activity studies of antitumor taxanes: synthesis of novel C-13 side chain homologated taxol and taxotere analogs” (J Med Chem, 1994)
